Assay results reported in patent publication US10039759B2, “Quinolines as FGFR kinase modulators” (priority 2011, dated 2018).
Counter-ions that a name gives are not always drawn.

Columns and labels:
KDR (h) = KDR (h) (Homo sapiens, UniProt P35968); experiment: KDR (VEGFR2) (enzymatic assay), TR-FRET; type: biochemical; settings: 3 μM ATP, 120 min; pIC50 = -log IC50 (M); average if tested multiple times; read-out: VEGFR KDR pIC50 (converted)
Description: KDR (VEGFR2) (Enzymatic Assay)
In a final reaction volume of 30 μL, KDR (h) (150 ng/ml) was incubated with 50 mM HEPES pH 7.5, 6 mM MnCl2, 1 mM DTT, 0.1 mM Na3VO4, 0.01% Triton-X-100, 500 nM Btn-Flt3 and 3 μM ATP in the presence of compound (1% DMSO final). After incubation for 120 minutes at room temperature the reaction was stopped with 2.27 nM EU-anti P-Tyr, 7 mM EDTA, 31.25 nM SA-XL-665 and 0.02% BSA which was present for 60 minutes at room temperature. Time-Resolved Fluorescence Resonance Energy Transfer (TR-FRET) signal (ex340 nm. Em 620 nm, em 655 nm) was measured afterwards and results are expressed in RFU (Relative Fluorescence Units). In this assay, the inhibitory effect of different compound concentrations (range 10 μM to 0.1 nM) was determined and used to calculate an IC50 (M) and pIC50 (−log IC50) value.

FGFR2 (h) = FGFR2 (h) (Homo sapiens, UniProt P21802); experiment: FGFR2 (enzymatic assay), TR-FRET; type: biochemical; settings: 0.4 μM ATP, 60 min; pIC50 = -log IC50 (M); average if tested multiple times; read-out: FGFR 2 pIC50 (converted)
FGFR1 (h) = FGFR1 (h) (Homo sapiens, UniProt P11362); experiment: FGFR1 (enzymatic assay), TR-FRET; type: biochemical; settings: FGFR 1 pIC50, 5 μM ATP, 60 min; pIC50 = -log IC50 (M); average if tested multiple times
FGFR3 (h) = FGFR3 (h) (Homo sapiens, UniProt P22607); experiment: FGFR3 (enzymatic assay), TR-FRET; type: biochemical; settings: 25 μM ATP, 60 min; pIC50 = -log IC50 (M); average if tested multiple times; read-out: hFGFR 3 pIC50 (converted)
[1] = biological target: T1, Ba/F3-KDR-transfected cells (Homo sapiens, UniProt P35968, cells depend on it, form not given); experiment: Ba/F3-KDR (minus IL3 or plus IL3) cellular proliferation assay, Alamar Blue; type: cell-based; settings: minus IL3; 24 hours, Alamar Blue
T1 construct: BAF3-KDR (MIN IL3 Alamar Blue pIC50); other: minus IL3; 24 hours, Alamar Blue
Description: (§1) Ba/F3-KDR (Minus IL3 or Plus IL3) (Cellular Proliferation Assay)
(§2) In a 384 well plate, 100 nl of compound dilution in DMSO was sprayed before adding 50 μl cell culture medium (phenol red free RPMI-1640, 10% FBS, 2 mM L-Glutamine and 50 μg/ml Gentamycin) containing 20000 cells per well of Ba/F3-KDR-transfected cells. Cells were put in an incubator at 37° C. and 5% CO2. After 24 hours, 10 μl of Alamar Blue solution (0.5 mM K3Fe(CN)6, 0.5 mM K4Fe(CN)6, 0.15 mM Resazurin and 100 mM Phosphate Buffer) was added to the wells, incubated for 4 hours at 37° C. and 5% CO2 before RFU's (Relative Fluorescence Units) (ex. 540 nm., em. 590 nm.) were measured in a fluorescence plate reader.
(§3) In this assay, the inhibitory effect of different compound concentrations (range 10 μM to 0.1 nM) was determined and used to calculate an IC50 (M) and pIC50 (−log IC50) value. As a counterscreen the same experiment was performed in the presence of 10 ng/ml murine IL3.

[2] = tested on: Ba/F3-KDR-transfected cells; experiment: as above; type: cell-based; settings: plus IL3 (10 ng/ml murine IL3, counterscreen); 24 hours, Alamar Blue; read-out: BAF3-KDR (PLUS IL3 Alamar Blue pIC50) (converted)
Description: as §1, §2, §3

[3] = biological target: T2, Ba/F3-FGFR1-transfected cells (Homo sapiens, UniProt P11362, cells depend on it, form not given); experiment: Ba/F3-FGFR1 (minus IL3 or plus IL3) cellular proliferation assay, Alamar Blue; type: cell-based; settings: minus IL3, 24 hours
T2 construct: other: minus IL3; 24 hours, Alamar Blue
Description: Ba/F3-FGFR1 (Minus IL3 or Plus IL3) (Cellular Proliferation Assay)
as §2, with “Ba/F3-FGFR1-transfected” for “Ba/F3-KDR-transfected”
as §3

FGFR4 (h) = FGFR4 (h) (Homo sapiens, UniProt P22455); experiment: FGFR4 (enzymatic assay), TR-FRET; type: biochemical; settings: FGFR 4 pIC50, 5 μM ATP, 60 min; pIC50 = -log IC50 (M); average if tested multiple times
[4] = biological target: Ba/F3-FGFR4-transfected cells (Homo sapiens, UniProt P22455); experiment: Ba/F3-FGFR4 cellular proliferation assay, Alamar Blue; type: cell-based; settings: 24 hours
Description: Ba/F3-FGFR4 (Cellular Proliferation Assay)
as §2, with “Ba/F3-FGFR4-transfected” for “Ba/F3-KDR-transfected”
In this assay, the inhibitory effect of different compound concentrations (range 10 μM to 0.1 nM) was determined and used to calculate an IC50 (M) and pIC50 (−log IC50) value.

[5] = biological target: T3, Ba/F3-FGFR3-transfected cells (Homo sapiens, UniProt P22607, cells depend on it, form not given); experiment: Ba/F3-FGFR3 (minus IL3 or plus IL3) cellular proliferation assay, Alamar Blue; type: cell-based; settings: minus IL3; 24 hours, Alamar Blue
T3 construct: BAF3-FGFR3 (MIN IL3 Alamar Blue- pIC50); other: minus IL3; 24 hours, Alamar Blue
Description: (§4) Ba/F3-FGFR3 (Minus IL3 or Plus IL3) (Cellular Proliferation Assay)
as §2, with “Ba/F3-FGFR3-transfected” for “Ba/F3-KDR-transfected”
as §3

[6] = tested on: Ba/F3-FGFR3-transfected cells; experiment: as above; type: cell-based; settings: plus IL3 (10 ng/ml murine IL3, counterscreen); 24 hours, Alamar Blue; read-out: BAF3-FGFR3 (PLUS IL3 Alamar Blue pIC50) (converted)
Description: as §4
as §2, with “Ba/F3-FGFR3-transfected” for “Ba/F3-KDR-transfected”
as §3

Chain of KDR (h) (P35968 20-1356): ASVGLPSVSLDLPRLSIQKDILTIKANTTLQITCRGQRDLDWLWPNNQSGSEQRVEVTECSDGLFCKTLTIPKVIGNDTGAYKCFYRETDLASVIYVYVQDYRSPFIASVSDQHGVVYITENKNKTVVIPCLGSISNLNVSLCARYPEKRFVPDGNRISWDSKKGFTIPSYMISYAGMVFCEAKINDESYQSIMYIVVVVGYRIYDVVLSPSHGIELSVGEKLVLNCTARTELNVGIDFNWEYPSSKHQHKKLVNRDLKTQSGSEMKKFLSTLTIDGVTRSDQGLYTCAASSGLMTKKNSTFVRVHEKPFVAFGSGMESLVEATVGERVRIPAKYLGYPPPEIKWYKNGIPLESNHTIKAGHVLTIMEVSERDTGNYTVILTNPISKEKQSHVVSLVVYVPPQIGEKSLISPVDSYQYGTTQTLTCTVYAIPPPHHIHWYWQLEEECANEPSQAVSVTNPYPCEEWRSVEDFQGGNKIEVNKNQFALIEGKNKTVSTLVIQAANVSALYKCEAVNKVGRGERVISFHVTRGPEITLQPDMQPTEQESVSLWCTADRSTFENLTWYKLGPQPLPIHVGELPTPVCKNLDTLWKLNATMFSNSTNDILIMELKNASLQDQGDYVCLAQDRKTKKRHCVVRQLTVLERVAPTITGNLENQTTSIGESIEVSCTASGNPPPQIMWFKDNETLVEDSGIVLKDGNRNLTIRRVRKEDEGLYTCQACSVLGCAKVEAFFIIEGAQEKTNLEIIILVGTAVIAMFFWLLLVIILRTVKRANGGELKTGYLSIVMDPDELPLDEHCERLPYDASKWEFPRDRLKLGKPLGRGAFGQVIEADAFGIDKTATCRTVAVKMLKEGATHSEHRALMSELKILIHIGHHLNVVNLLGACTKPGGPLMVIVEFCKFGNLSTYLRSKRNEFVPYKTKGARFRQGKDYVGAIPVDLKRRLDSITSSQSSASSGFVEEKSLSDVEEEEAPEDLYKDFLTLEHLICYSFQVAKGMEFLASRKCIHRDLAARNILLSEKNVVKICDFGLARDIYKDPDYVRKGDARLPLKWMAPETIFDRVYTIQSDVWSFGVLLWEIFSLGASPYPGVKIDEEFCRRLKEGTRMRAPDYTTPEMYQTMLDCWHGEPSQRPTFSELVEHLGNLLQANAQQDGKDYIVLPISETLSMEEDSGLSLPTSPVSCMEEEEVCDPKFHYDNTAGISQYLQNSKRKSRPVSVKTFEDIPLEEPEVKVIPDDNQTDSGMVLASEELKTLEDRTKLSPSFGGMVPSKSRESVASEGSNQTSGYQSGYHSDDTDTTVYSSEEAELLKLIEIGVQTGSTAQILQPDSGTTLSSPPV
T3 sequence (P22607 whole entry, change not shown): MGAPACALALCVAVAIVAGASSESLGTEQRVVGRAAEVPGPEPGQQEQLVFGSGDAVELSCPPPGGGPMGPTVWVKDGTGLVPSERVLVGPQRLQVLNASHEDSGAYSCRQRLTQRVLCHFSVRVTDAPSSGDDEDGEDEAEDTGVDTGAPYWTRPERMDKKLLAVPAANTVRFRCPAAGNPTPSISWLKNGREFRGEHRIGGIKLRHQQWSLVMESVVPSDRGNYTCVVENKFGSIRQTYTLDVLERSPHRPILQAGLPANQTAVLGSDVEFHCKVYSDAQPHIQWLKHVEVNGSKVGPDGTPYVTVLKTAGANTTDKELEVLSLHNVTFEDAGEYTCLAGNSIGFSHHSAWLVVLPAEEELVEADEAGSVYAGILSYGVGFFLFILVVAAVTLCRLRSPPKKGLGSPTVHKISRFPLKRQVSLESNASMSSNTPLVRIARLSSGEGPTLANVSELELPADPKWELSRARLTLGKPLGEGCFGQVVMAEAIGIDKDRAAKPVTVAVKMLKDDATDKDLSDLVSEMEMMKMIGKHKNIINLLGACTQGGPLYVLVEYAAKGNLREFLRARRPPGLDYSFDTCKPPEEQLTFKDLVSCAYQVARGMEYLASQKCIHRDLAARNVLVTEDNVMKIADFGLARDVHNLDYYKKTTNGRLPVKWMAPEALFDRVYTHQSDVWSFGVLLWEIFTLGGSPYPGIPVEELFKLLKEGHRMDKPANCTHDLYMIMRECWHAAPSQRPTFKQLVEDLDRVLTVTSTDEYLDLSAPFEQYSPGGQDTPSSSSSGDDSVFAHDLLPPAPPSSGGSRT
T1 sequence (P35968 whole entry, change not shown): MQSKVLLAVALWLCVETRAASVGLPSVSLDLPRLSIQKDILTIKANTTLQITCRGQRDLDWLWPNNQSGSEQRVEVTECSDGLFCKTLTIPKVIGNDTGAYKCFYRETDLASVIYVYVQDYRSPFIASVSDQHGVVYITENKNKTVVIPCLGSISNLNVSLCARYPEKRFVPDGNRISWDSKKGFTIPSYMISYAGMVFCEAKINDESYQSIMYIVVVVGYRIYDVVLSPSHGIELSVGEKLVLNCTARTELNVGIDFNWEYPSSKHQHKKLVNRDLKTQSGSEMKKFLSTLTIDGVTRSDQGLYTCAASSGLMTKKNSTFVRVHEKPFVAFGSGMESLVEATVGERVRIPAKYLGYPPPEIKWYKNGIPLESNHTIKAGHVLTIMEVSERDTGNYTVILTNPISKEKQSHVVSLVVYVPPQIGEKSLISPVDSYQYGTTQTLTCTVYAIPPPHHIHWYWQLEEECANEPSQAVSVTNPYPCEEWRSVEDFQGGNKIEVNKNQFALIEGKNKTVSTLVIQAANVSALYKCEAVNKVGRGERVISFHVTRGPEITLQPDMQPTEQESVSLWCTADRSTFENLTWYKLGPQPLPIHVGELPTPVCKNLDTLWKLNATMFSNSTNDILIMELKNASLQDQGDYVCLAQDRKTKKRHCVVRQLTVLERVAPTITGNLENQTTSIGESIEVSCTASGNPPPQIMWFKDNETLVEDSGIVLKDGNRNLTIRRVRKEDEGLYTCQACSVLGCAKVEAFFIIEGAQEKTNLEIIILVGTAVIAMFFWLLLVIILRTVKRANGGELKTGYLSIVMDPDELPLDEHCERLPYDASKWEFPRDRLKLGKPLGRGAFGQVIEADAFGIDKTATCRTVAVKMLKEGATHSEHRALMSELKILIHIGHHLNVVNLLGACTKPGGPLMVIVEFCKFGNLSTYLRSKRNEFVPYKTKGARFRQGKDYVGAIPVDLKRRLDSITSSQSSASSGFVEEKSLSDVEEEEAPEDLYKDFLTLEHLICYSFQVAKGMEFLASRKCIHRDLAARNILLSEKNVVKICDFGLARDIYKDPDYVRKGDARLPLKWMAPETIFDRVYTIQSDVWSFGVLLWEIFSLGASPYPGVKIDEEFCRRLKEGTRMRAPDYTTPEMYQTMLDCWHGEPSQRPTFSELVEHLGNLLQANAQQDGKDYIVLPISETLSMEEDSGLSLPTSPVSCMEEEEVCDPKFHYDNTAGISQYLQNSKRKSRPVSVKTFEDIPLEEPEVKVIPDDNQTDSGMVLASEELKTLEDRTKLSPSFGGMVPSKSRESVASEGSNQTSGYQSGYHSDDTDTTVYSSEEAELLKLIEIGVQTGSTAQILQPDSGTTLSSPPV
T2 sequence (P11362 whole entry, change not shown): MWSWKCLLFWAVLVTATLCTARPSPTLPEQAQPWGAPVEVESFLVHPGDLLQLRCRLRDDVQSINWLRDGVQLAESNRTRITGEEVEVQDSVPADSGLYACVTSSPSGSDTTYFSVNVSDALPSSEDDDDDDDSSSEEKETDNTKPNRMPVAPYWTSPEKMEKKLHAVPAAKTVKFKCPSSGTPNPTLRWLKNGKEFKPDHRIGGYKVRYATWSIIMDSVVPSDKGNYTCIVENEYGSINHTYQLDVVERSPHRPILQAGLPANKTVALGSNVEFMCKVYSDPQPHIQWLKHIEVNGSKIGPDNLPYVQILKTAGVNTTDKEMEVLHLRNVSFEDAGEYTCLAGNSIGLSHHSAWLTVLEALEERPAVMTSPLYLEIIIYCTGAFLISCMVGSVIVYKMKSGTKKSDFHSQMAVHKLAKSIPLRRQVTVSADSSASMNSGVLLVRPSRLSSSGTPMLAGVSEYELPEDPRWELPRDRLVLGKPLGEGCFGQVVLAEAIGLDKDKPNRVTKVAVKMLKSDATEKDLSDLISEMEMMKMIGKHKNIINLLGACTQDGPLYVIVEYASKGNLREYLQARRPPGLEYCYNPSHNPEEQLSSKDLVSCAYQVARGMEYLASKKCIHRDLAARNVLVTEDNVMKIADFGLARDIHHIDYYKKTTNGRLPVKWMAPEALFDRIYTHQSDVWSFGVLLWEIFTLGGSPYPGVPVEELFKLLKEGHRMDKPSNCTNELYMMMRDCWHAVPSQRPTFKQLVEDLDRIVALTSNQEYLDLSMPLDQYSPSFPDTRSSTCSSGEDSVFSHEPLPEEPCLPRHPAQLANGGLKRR
Chain of FGFR4 (h) (P22455 22-802): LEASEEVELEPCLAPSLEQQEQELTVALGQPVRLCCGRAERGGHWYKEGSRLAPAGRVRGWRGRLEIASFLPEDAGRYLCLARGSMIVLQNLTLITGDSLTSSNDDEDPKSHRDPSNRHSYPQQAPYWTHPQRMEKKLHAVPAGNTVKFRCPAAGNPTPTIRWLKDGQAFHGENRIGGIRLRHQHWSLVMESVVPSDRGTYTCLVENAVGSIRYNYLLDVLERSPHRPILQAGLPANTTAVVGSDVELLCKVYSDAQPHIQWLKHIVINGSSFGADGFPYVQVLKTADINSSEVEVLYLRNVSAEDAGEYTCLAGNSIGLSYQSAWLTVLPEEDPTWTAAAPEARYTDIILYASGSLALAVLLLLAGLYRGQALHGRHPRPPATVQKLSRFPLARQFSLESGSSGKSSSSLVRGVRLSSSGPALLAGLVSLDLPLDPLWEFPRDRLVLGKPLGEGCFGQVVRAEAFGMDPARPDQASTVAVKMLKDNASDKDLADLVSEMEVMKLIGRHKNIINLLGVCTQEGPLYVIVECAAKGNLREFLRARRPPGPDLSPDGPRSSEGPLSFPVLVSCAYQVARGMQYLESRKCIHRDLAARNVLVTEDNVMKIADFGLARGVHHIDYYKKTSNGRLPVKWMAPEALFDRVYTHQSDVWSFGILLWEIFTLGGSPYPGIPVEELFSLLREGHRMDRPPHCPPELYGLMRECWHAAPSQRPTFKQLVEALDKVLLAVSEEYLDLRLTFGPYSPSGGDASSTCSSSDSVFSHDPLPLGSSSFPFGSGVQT

Row | melting point [°C] | IC50 (KDR (h)) [M] | IC50 (FGFR2 (h)) [M] | IC50 (FGFR1 (h)) [M] | IC50 (FGFR3 (h)) [M] | BAF3-KDR (MIN IL3 Alamar Blue pIC50) [1] | BAF3-FGFR1 (MIN IL3 pIC50) [3] | IC50 (FGFR4 (h)) [M] | BAF3-FGFR 4 (pIC50) [4] | BAF3-FGFR3 (MIN IL3 Alamar Blue- pIC50) [5] | SMILES | IC50 [2] [µM] | IC50 [6] [µM]
1 | 180 | – | – | – | – | – | – | – | – | – | CNCCN(c1ccc2ncc(-c3cnn(C)c3)cc2c1)c1c(F)c(OC)cc(OC)c1F (as salt: HCl) [Compound 43] | – | –
2 | 75 | 1.58e-08 | 3.16e-09 | 1.15e-09 | 3.39e-09 | 6.95 | 8.95 | 2.88e-09 | 8.25 | 8.25 | COc1cc(OC)c(F)c(N(CCNC(C)C)c2ccc3ncc(-c4cnn(C)c4)cc3c2)c1F [Compound 42] | > 10 | > 10
3 | 172 | > 1e-06 | 2.82e-07 | – | 1.78e-07 | <5 | 5.09 | > 1e-06 | <5 | <5 | COc1cc(OC)cc(C(CC#N)c2ccc3ncc(-c4cnn(C)c4)cc3c2)c1 (stereo not drawn) [Compound 39] | > 10 | > 10
4 | 131 | > 1e-06 | 1.86e-07 | – | 2.14e-08 | <5 | 5.01 | 4.17e-07 | <5 | 5.16 | COc1cc(OC)cc(C(CCO)c2ccc3ncc(-c4cnn(C)c4)cc3c2)c1 (stereo not drawn) [Compound 34] | > 10 | > 10
5 | > 300 | – | – | – | – | – | – | – | – | – | COc1cc(OC)cc(C(CCNC(C)C)c2ccc3ncc(-c4cnn(C)c4)cc3c2)c1 (stereo not drawn) (as salt: HCl) [Compound 41] | – | –
6 | 120 | – | – | – | – | – | – | – | – | – | C#CCN(c1ccc2ncc(-c3cnn(C)c3)cc2c1)c1cc(OC)cc(OC)c1F | – | –
7 | 86 | 5.62e-07 | ~6.76e-08 | – | 4.57e-08 | 5.15 | 5.45 | – | <5 | 5.29 | COc1cc(OC)cc(/C(=C/C#N)c2ccc3ncc(-c4cnn(C)c4)cc3c2)c1 [Compound 29] | – | –
8 | 86 to 115 | – | – | – | – | – | – | – | – | – | COc1cc(OC)cc(N(CCNC(C)C)c2ccc3ncc(-c4cnn(CCO)c4)cc3c2)c1 (as salt: HCl) (hydrate or solvate) [Compound 13] | – | –

More lines, now with the values behind:

Row | SMILES | melting point [°C] | IC50 (KDR (h)) [M] | IC50 (FGFR2 (h)) [M] | IC50 (FGFR1 (h)) [M] | IC50 (FGFR3 (h)) [M] | BAF3-KDR (MIN IL3 Alamar Blue pIC50) [1] | BAF3-FGFR1 (MIN IL3 pIC50) [3] | IC50 (FGFR4 (h)) [M] | BAF3-FGFR 4 (pIC50) [4] | BAF3-FGFR3 (MIN IL3 Alamar Blue- pIC50) [5] | IC50 [2] [µM] | IC50 [6] [µM]
9 | COc1cc(OC)cc(N(CCO)c2ccc3ncc(-c4ccccc4)cc3c2)c1 [Compound 50] | 111 | > 1e-06 | 5.5e-08 | 6.92e-08 | 5.75e-08 | <5 | 5.11 | 2.57e-07 | <5 | 5.19 | > 10 | > 10
10 | COc1cc(OC)cc(N(CCCN2CCCC2=O)c2ccc3ncc(-c4cnn(C)c4)cc3c2)c1 (as salt: HCl) (hydrate or solvate) [Compound 10] | 142 | – | – | – | – | – | – | – | – | – | – | –
11 | COc1cc(OC)cc(N(Cc2ncc[nH]2)c2ccc3ncc(-c4ccccc4)cc3c2)c1 [Compound 52] | 133 | 9.33e-07 | 6.61e-09 | 1.58e-08 | 8.51e-09 | <5 | 5.77 | 1.66e-08 | 5.48 | 6.00 | – | –
12 | COc1cc(OC)cc(N(CCO)c2ccc3ncc(-c4ccn(C)c4)cc3c2)c1 [Compound 61] | 158 | 1.91e-07 | ~1.26e-08 | – | 2.69e-09 | 5.40 | 6.02 | 2.09e-08 | 5.66 | 5.84 | > 10 | > 10
13 | COc1cc(OC)cc(N(CCNC(C)C)c2ccc3ncc(-c4ccccc4)cc3c2)c1 [Compound 51] | – | 1.7e-07 | 3.98e-09 | 2.75e-09 | 7.94e-09 | 5.15 | 6.13 | 1.38e-08 | 5.87 | 5.82 | ~6.03 | > 10
14 | COc1cc(OC)cc(N(Cc2ncc[nH]2)c2ccc3ncc(C4CCNCC4)cc3c2)c1 [Compound 48a] | – | > 1e-06 | 1.7e-07 | 2.95e-07 | 4.17e-07 | <5 | <5 | 8.32e-07 | <5 | <5 | > 10 | > 10
